From ChEMBL document CHEMBL1681651, “A broad spectrum anticancer nucleoside with selective toxicity against human colon cells in vitro” (2011)

What was measured:
Assay type in all cases: functional
HCT-116 = assay: Growth inhibition of human HCT116 cells assessed as cell growth at 1 mM after 48 hrs by SRB assay; conditions: HCT-116, 48 h, read-out: Activity
SK-MEL-2 [1] = assay: Growth inhibition of human SK-MEL-2 cells assessed as cell growth at 0.1 uM after 48 hrs by SRB assay; conditions: SK-MEL-2, 48 h, read-out: Activity
NCI-H322M [2] = assay: Growth inhibition of human NCI-H322M cells assessed as cell growth at 1 mM after 48 hrs by SRB assay; conditions: read-out: Activity
UACC-62 [3] = assay: Growth inhibition of human UACC62 cells assessed as cell growth at 10 uM after 48 hrs by SRB assay; conditions: UACC-62, 48 h, read-out: Activity
IGROV-1 = assay: Growth inhibition of human IGROV1 cells assessed as cell growth at 10 uM after 48 hrs by SRB assay; conditions: IGROV-1, 48 h, read-out: Activity
K562 = assay: Growth inhibition of human K562 cells assessed as cell growth at 10 uM after 48 hrs by SRB assay; conditions: K562, 48 h, read-out: Activity
OVCAR-8 [4] = assay: Growth inhibition of human OVCAR8 cells assessed as cell growth at 100 uM after 48 hrs by SRB assay; conditions: OVCAR-8, 48 h, read-out: Activity
SK-MEL-28 = assay: Growth inhibition of human SK-MEL-28 cells assessed as cell growth at 10 uM after 48 hrs by SRB assay; conditions: SK-MEL-28, 48 h, read-out: Activity
ACHN [5] = assay: Growth inhibition of human ACHN cells assessed as cell growth at 0.1 uM after 48 hrs by SRB assay; conditions: read-out: Activity
SK-MEL-2 [6] = assay: Growth inhibition of human SK-MEL-2 cells assessed as cell growth at 1 mM after 48 hrs by SRB assay; conditions: SK-MEL-2, 48 h, read-out: Activity
NCI-H226 = assay: Growth inhibition of human NCI-H226 cells assessed as cell growth at 0.1 uM after 48 hrs by SRB assay; conditions: NCI-H226, 48 h, read-out: Activity
CAKI-1 = assay: Growth inhibition of human Caki1 cells assessed as cell growth at 100 uM after 48 hrs by SRB assay; conditions: CAKI-1, 48 h, read-out: Activity
UACC-62 [7] = assay: Growth inhibition of human UACC62 cells assessed as cell growth at 1 uM after 48 hrs by SRB assay; conditions: UACC-62, 48 h, read-out: Activity
UACC-257 = assay: Growth inhibition of human UACC257 cells assessed as cell growth at 1 mM after 48 hrs by SRB assay; conditions: UACC-257, 48 h, read-out: Activity
TK-10 [8] = assay: Growth inhibition of human TK10 cells after 48 hrs by […] growth inhibition assay; conditions: TK-10, 48 h
UO-31 = assay: Growth inhibition of human UO31 cells assessed as cell growth at 10 uM after 48 hrs by SRB assay; conditions: UO-31, 48 h, read-out: Activity
SK-MEL-2 [9] = assay: Growth inhibition of human SK-MEL-2 cells after 48 hrs by […] growth inhibition assay; conditions: SK-MEL-2, 48 h
HCT-15 = assay: Growth inhibition of human HCT15 cells assessed as cell growth at 100 uM after 48 hrs by SRB assay; conditions: HCT-15, 48 h, read-out: Activity
OVCAR-5 = assay: Growth inhibition of human OVCAR5 cells assessed as cell growth at 1 uM after 48 hrs by SRB assay; conditions: OVCAR-5, 48 h, read-out: Activity
TK-10 [10] = assay: Growth inhibition of human TK10 cells assessed as cell growth at 0.1 uM after 48 hrs by SRB assay; conditions: TK-10, 48 h, read-out: Activity
SNB-75 = assay: Growth inhibition of human SNB75 cells assessed as cell growth at 0.1 uM after 48 hrs by SRB assay; conditions: SNB-75, 48 h, read-out: Activity
ACHN [11] = assay: Growth inhibition of human ACHN cells assessed as cell growth at 10 uM after 48 hrs by SRB assay; conditions: read-out: Activity
MDA-MB-231 = assay: Growth inhibition of human MDA-MB-231 cells after 48 hrs by […] growth inhibition assay; conditions: MDA-MB-231, 48 h
OVCAR-8 [12] = assay: Growth inhibition of human OVCAR8 cells after 48 hrs by […] growth inhibition assay; conditions: OVCAR-8, 48 h
NCI-H522 = assay: Growth inhibition of human NCI-H522 cells assessed as cell growth at 1 mM after 48 hrs by SRB assay; conditions: NCI-H522, 48 h, read-out: Activity
NCI-H322M [13] = assay: Growth inhibition of human NCI-H322M cells assessed as cell growth at 100 uM after 48 hrs by SRB assay; conditions: read-out: Activity
SN12C = assay: Growth inhibition of human SN12C cells after 48 hrs by […] growth inhibition assay
[14] = Growth inhibition of human […] cells assessed as cell growth at 10 uM after 48 hrs by SRB assay; conditions: read-out: Activity
RXF 393 = assay: Growth inhibition of human RXF393 cells after 48 hrs by […] growth inhibition assay; conditions: RXF 393, 48 h
HT-29 = assay: Growth inhibition of human HT-29 cells assessed as cell growth at 1 mM after 48 hrs by SRB assay; conditions: HT-29, 48 h, read-out: Activity
Malme-3M = assay: Growth inhibition of human MALME-3M cells assessed as cell growth at 1 mM after 48 hrs by SRB assay; conditions: read-out: Activity
SF-295 = assay: Growth inhibition of human SF295 cells assessed as cell growth at 1 mM after 48 hrs by SRB assay; conditions: SF-295, 48 h, read-out: Activity
DU-145 = assay: Growth inhibition of human DU145 cells assessed as cell growth at 0.1 uM after 48 hrs by SRB assay; conditions: DU-145, 48 h, read-out: Activity
[15] = read-out: LC50 (the source's name)
[16] = read-out: pLC50 (the source's name) (converted)

CCOC(=O)C[C@H]1[C@@H](O[Si](C)(C)C(C)(C)C)[C@H](n2cnc3c(NC(=O)Nc4ccccc4)ncnc32)O[C@@H]1CNC(=O)NC
growth at 1000 µM (HCT-116): -88%
growth at 0.1 µM (SK-MEL-2 [1]): 102%
growth at 1000 µM (NCI-H322M [2]): 72%
growth at 10 µM (UACC-62 [3]): 97%
growth at 10 µM (IGROV-1): 93%
growth at 10 µM (K562): 89%
growth at 100 µM (OVCAR-8 [4]): 29%
growth at 10 µM (SK-MEL-28): 100%
growth at 0.1 µM (ACHN [5]): 107%
growth at 1000 µM (SK-MEL-2 [6]): -30%
growth at 0.1 µM (NCI-H226): 101%
growth at 100 µM (CAKI-1): 88%
growth at 1 µM (UACC-62 [7]): 102%
growth at 1000 µM (UACC-257): 9%
GI50 (TK-10 [8]; read-out: GI50): 12.4 µM
CC50 (TK-10 [8]; [15]): > 100 µM
TGI (TK-10 [8]; read-out: TGI): 40.5 µM
GI50 (TK-10 [8]; read-out: pGI50 (converted)): 12.3 µM
CC50 (TK-10 [8]; [16]): > 100 µM
TGI (TK-10 [8]; read-out: pTGI (converted)): 40.7 µM
growth at 10 µM (UO-31): 82%
GI50 (SK-MEL-2 [9]; read-out: GI50): 5.42 µM
CC50 (SK-MEL-2 [9]; [15]): > 100 µM
TGI (SK-MEL-2 [9]; read-out: TGI): 33.1 µM
GI50 (SK-MEL-2 [9]; read-out: pGI50 (converted)): 5.37 µM
CC50 (SK-MEL-2 [9]; [16]): > 100 µM
TGI (SK-MEL-2 [9]; read-out: pTGI (converted)): 33.1 µM
growth at 100 µM (HCT-15): 47%
growth at 1 µM (OVCAR-5): 103%
growth at 0.1 µM (TK-10 [10]): 98%
growth at 0.1 µM (SNB-75): 92%
growth at 10 µM (ACHN [11]): 96%
GI50 (MDA-MB-231; read-out: GI50): 3.96 µM
CC50 (MDA-MB-231; [15]): > 100 µM
TGI (MDA-MB-231; read-out: TGI): 41.3 µM
GI50 (MDA-MB-231; read-out: pGI50 (converted)): 3.98 µM
CC50 (MDA-MB-231; [16]): > 100 µM
TGI (MDA-MB-231; read-out: pTGI (converted)): 41.7 µM
GI50 (OVCAR-8 [12]; read-out: GI50): 4.92 µM
CC50 (OVCAR-8 [12]; [15]): > 100 µM
TGI (OVCAR-8 [12]; read-out: TGI): 77.2 µM
GI50 (OVCAR-8 [12]; read-out: pGI50 (converted)): 4.9 µM
CC50 (OVCAR-8 [12]; [16]): > 100 µM
TGI (OVCAR-8 [12]; read-out: pTGI (converted)): 77.6 µM
growth at 1000 µM (NCI-H522): -2%
growth at 100 µM (NCI-H322M [13]): 89%
GI50 (SN12C; read-out: GI50): 9.1 µM
CC50 (SN12C; [15]): > 100 µM
TGI (SN12C; read-out: TGI): > 100 µM
GI50 (SN12C; read-out: pGI50 (converted)): 9.12 µM
CC50 (SN12C; [16]): > 100 µM
TGI (SN12C; read-out: pTGI (converted)): > 100 µM
growth at 10 µM [14]: 53%
GI50 (RXF 393; read-out: GI50): 2.01 µM
CC50 (RXF 393; [15]): 19.5 µM
TGI (RXF 393; read-out: TGI): 4.63 µM
GI50 (RXF 393; read-out: pGI50 (converted)): 2 µM
CC50 (RXF 393; [16]): 19.5 µM
TGI (RXF 393; read-out: pTGI (converted)): 4.68 µM
growth at 1000 µM (HT-29): 3%
growth at 1000 µM (Malme-3M): 17%
growth at 1000 µM (SF-295): 24%
growth at 0.1 µM (DU-145): 110%
